The results in this text go back to patent publication US11814367B2, “Inhibitors of glycogen synthase 1 (GYS1) and methods of use thereof” (Maze Therapeutics, Inc., priority 2021, dated 2023).

Test [1] deals with hGYS2 enzyme (recombinant hGYS2/GN1 protein) (Homo sapiens (Human), UniProt P54840). As to the kind of experiment: GYS2 coupled enzyme assay (PK/LDH). The following applies: geometric mean of at least 2 assay runs on separate days, read-out: Avg_IC50. It is filed as biochemical. An outline of the steps:
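Recombinant hGYS2/GN1 (200 nM) with 2 mM UDP-glucose, 0.2% rabbit liver glycogen, 2 mM glucose-6-phosphate; UDP coupled via PK/LDH (2 mM PEP, 0.6 mM NADH). Buffer 50 mM Tris pH 7.5, 2 mM MgCl2, 100 mM KCl, 2.5% DMSO. A340 slope over 10 min; IC50 from Hill fit of duplicates.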

In test [2] the target is hGYS1 enzyme (recombinant hGYS1/GN1 protein) (Homo sapiens (Human), UniProt P13807). In words: GYS1 coupled enzyme assay (PK/LDH). The class given is biochemical. The following applies: hGYS1/GN1 50 nM, UDP-Glucose 0.8 mM, G6P 1 mM; geometric mean of at least 2 runs.
Chain of hGYS1 enzyme (recombinant hGYS1/GN1 protein) (P13807 whole entry): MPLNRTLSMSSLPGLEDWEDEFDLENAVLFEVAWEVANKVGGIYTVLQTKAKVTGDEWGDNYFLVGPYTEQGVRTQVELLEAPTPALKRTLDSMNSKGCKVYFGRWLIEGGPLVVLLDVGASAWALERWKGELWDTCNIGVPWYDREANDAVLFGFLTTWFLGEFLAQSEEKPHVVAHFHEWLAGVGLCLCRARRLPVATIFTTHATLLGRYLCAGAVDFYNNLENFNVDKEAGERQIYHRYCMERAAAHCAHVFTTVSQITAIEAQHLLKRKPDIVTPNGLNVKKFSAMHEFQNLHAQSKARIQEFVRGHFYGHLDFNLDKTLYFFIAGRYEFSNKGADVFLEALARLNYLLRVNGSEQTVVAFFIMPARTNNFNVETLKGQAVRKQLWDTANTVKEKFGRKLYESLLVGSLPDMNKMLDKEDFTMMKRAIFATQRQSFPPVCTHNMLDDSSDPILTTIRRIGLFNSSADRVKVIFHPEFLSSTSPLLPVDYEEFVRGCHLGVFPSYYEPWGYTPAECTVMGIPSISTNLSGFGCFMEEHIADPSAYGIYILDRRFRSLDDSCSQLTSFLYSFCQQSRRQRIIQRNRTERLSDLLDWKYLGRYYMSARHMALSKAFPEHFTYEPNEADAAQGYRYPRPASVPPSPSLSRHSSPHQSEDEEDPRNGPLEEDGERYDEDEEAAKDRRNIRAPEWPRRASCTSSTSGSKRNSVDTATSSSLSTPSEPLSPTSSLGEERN
Chain of hGYS1 enzyme (recombinant hGYS1/GN1 protein) (P46976 whole entry partner): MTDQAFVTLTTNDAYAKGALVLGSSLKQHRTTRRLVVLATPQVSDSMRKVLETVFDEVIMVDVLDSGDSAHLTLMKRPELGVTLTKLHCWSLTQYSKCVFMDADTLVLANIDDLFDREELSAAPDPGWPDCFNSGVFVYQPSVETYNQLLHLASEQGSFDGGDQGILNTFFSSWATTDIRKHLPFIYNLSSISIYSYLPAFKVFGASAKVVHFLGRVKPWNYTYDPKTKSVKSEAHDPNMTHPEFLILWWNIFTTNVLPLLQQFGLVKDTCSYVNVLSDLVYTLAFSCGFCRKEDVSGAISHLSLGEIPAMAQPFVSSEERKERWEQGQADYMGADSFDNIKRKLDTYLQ
For test [3], the system named is hGYS1 enzyme / glycogen synthesis in HeLa cells. In words: GYS1 cell based assay (glycogen synthesis, Glucose-glo). The arrangement: species or system human. The following applies: Homo sapiens, HeLa, 24 h, 24 h incubation, 20 mM glucose, geometric mean of at least 2 runs. In short, it runs like this: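 HeLa cells starved 24 h in medium containing only 1× Glutamax were plated onto compound in medium with 20 mM glucose (1% DMSO final) for 24 h, 37 °C, 5% CO2. Acid lysates were Tris-quenched, glucoamylase-digested (pH 5.3, 1 h, 37 °C) and read by Glucose-glo luminescence. IC50 came from Hill fits, as geometric mean of ≥2 runs.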

Chain of hGYS2 enzyme (recombinant hGYS2/GN1 protein) (P54840 whole entry): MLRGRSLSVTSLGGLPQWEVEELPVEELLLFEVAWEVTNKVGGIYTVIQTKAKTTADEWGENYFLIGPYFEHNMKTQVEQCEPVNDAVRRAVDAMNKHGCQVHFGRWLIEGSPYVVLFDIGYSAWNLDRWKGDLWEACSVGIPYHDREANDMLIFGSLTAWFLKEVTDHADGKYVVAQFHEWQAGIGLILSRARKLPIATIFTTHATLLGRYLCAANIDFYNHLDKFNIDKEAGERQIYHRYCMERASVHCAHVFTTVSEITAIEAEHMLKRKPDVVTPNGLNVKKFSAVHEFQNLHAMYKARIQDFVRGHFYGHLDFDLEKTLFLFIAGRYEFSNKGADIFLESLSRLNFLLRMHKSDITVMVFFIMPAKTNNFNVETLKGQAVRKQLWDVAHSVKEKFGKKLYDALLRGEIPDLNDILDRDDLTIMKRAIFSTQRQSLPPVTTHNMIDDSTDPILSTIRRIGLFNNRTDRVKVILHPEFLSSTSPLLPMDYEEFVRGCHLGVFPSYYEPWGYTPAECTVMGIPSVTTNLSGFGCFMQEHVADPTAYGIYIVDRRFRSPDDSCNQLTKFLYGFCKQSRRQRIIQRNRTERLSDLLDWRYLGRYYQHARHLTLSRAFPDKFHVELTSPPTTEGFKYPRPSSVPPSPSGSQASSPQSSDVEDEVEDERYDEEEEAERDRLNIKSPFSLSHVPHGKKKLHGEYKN
Chain of hGYS2 enzyme (recombinant hGYS2/GN1 protein) (P46976 whole entry partner): as the sequence (P46976 whole entry partner) above

Regarding `Cn1nc(CC(=O)N2C[C@H](F)C[C@H]2C(=O)N[C@@H](c2ccccc2)c2ccc(C3CC3)c(F)n2)n(C)c1=O` [Compound 722, (2S,4R)-N-[(S)-(5-cyclopropyl-6-fluoropyridin-2-yl)(phenyl)methyl]-1-[2-(1,4-dimethyl-5-oxo-4,5-dihydro-1H-1,2,4-triazol-3-yl)acetyl]-4-fluoropyrrolidine-2-carboxamide], the results for the IC50 in test [1], in test [2] and in test [3] were more than 100 µM, 0.085 µM and 1.45 µM, respectively.
Consider `O=C(N[C@@H](c1ccccc1)c1ccc(C2CC2)c(F)n1)[C@@H]1C[C@@H](F)CN1C(=O)Cn1cccn1` [Compound 723, (2S,4R)-N-[(S)-(5-cyclopropyl-6-fluoropyridin-2-yl)(phenyl)methyl]-4-fluoro-1-[2-(1H-pyrazol-1-yl)acetyl]pyrrolidine-2-carboxamide], for which the IC50 in test [1] was more than 100 µM; in test [2], 0.046 µM; in test [3], 0.72 µM.
Turning to `Cc1ccnn1CC(=O)N1C[C@H](F)C[C@H]1C(=O)N[C@@H](c1ccccc1)c1ccc(C2CC2)c(F)n1` [Compound 724, (2S,4R)-N-[(S)-(5-cyclopropyl-6-fluoropyridin-2-yl)(phenyl)methyl]-4-fluoro-1-[2-(5-methyl-1H-pyrazol-1-yl)acetyl]pyrrolidine-2-carboxamide], the IC50 was more than 100 µM in test [1], 0.034 µM in test [2] and 0.63 µM in test [3].
On the same counts, the results for `O=C(N[C@@H](c1ccccc1)c1ccc(C2CC2)c(F)n1)[C@@H]1C[C@@H](F)CN1C(=O)Cn1nccc1C(F)F` [Compound 725, (2S,4R)-N-[(S)-(5-cyclopropyl-6-fluoropyridin-2-yl)(phenyl)methyl]-1-{2-[5-(difluoromethyl)-1H-pyrazol-1-yl]acetyl}-4-fluoropyrrolidine-2-carboxamide] are more than 100 µM, 0.015 µM and 0.31 µM.
Take `O=C(N[C@@H](c1ccccc1)c1ccc(C2CC2)c(F)n1)[C@@H]1C[C@@H](F)CN1C(=O)Cn1cc(N2CCC2)nn1` [Compound 726, (2S,4R)-1-{2-[4-(azetidin-1-yl)-1H-1,2,3-triazol-1-yl]acetyl}-N-[(S)-(5-cyclopropyl-6-fluoropyridin-2-yl)(phenyl)methyl]-4-fluoropyrrolidine-2-carboxamide]: the results for the IC50 in test [1], in test [2] and in test [3] were more than 100 µM, 0.03 µM and 0.54 µM, respectively.
In the case of `O=C(N[C@@H](c1ccccc1)c1ccc(C2CC2)c(F)n1)[C@@H]1C[C@@H](F)CN1C(=O)Cn1ccc(=O)[nH]c1=O` [Compound 727, (2S,4R)-N-[(S)-(5-cyclopropyl-6-fluoropyridin-2-yl)(phenyl)methyl]-1-[2-(2,4-dioxo-1,2,3,4-tetrahydropyrimidin-1-yl)acetyl]-4-fluoropyrrolidine-2-carboxamide], the IC50 in test [1] was more than 100 µM; in test [2], 0.017 µM; in test [3] it was 0.91 µM.
The matching figures for `O=C(N[C@@H](c1ccccc1)c1ccc(C2CC2)c(F)n1)[C@@H]1C[C@@H](F)CN1C(=O)Cn1cc(C(F)(F)F)cn1` [Compound 728, (2S,4R)-N-[(S)-(5-cyclopropyl-6-fluoropyridin-2-yl)(phenyl)methyl]-4-fluoro-1-{2-[4-(trifluoromethyl)-1H-pyrazol-1-yl]acetyl}pyrrolidine-2-carboxamide]: more than 100 µM, 0.036 µM and 0.79 µM.
For `O=C(N[C@@H](c1ccccc1)c1ccc(C2CC2)c(F)n1)[C@@H]1C[C@@H](F)CN1C(=O)Cn1ccc(C(F)F)n1` [Compound 729, (2S,4R)-N-[(S)-(5-cyclopropyl-6-fluoropyridin-2-yl)(phenyl)methyl]-1-{2-[3-(difluoromethyl)-1H-pyrazol-1-yl]acetyl}-4-fluoropyrrolidine-2-carboxamide], the IC50 is more than 100 µM in test [1], 0.039 µM in test [2] and 0.71 µM in test [3].
On the same counts, the results for `O=C(N[C@@H](c1ccccc1)c1ccc(C2CC2)c(F)n1)[C@@H]1C[C@@H](F)CN1C(=O)Cc1ccc[nH]c1=O` [Compound 731, (2S,4R)-N-[(S)-(5-cyclopropyl-6-fluoropyridin-2-yl)(phenyl)methyl]-4-fluoro-1-[2-(2-oxo-1,2-dihydropyridin-3-yl)acetyl]pyrrolidine-2-carboxamide] are more than 100 µM, 0.066 µM and 1.62 µM.
For `Cc1cc(CC(=O)N2C[C@H](F)C[C@H]2C(=O)N[C@@H](c2ccccc2)c2ccc(C3CC3)c(F)n2)c[nH]c1=O` [Compound 732, (2S,4R)-N-[(S)-(5-cyclopropyl-6-fluoropyridin-2-yl)(phenyl)methyl]-4-fluoro-1-[2-(5-methyl-6-oxo-1,6-dihydropyridin-3-yl)acetyl]pyrrolidine-2-carboxamide], the values for the IC50 in test [1], in test [2] and in test [3] were more than 100 µM, 0.027 µM and 1.37 µM, respectively.
As to `CCn1c(=O)c(C)cn(CC(=O)N2C[C@H](F)C[C@H]2C(=O)N[C@@H](c2ccccc2)c2ccc(C3CC3)c(F)n2)c1=O` [Compound 733, (2S,4R)-N-[(S)-(5-cyclopropyl-6-fluoropyridin-2-yl)(phenyl)methyl]-1-[2-(3-ethyl-5-methyl-2,4-dioxo-1,2,3,4-tetrahydropyrimidin-1-yl)acetyl]-4-fluoropyrrolidine-2-carboxamide], the IC50 in test [1] was more than 100 µM; in test [2], 0.005 µM; in test [3] it was 0.15 µM.
In the case of `O=C(N[C@@H](c1ccccc1)c1ccc(C2CC2)c(F)n1)[C@@H]1C[C@@H](F)CN1C(=O)Cc1ccc(=O)[nH]c1` [Compound 734, (2S,4R)-N-[(S)-(5-cyclopropyl-6-fluoropyridin-2-yl)(phenyl)methyl]-4-fluoro-1-[2-(6-oxo-1,6-dihydropyridin-3-yl)acetyl]pyrrolidine-2-carboxamide], the IC50 in test [1] is more than 100 µM; in test [2], 0.026 µM; in test [3] it was 1.73 µM.
The matching figures for `CCn1c(=O)ccn(CC(=O)N2C[C@H](F)C[C@H]2C(=O)N[C@@H](c2ccccc2)c2ccc(C3CC3)c(F)n2)c1=O` [Compound 735, (2S,4R)-N-[(S)-(5-cyclopropyl-6-fluoropyridin-2-yl)(phenyl)methyl]-1-[2-(3-ethyl-2,4-dioxo-1,2,3,4-tetrahydropyrimidin-1 yl)acetyl]-4-fluoropyrrolidine-2-carboxamide]: more than 100 µM, 0.005 µM and 0.27 µM.
On the same counts, the results for `CCn1cc(CC(=O)N2C[C@H](F)C[C@H]2C(=O)N[C@@H](c2ccccc2)c2ccc(C3CC3)c(F)n2)ccc1=O` [Compound 736, (2S,4R)-N-[(S)-(5-cyclopropyl-6-fluoropyridin-2-yl)(phenyl)methyl]-1-[2-(1-ethyl-6-oxo-1,6-dihydropyridin-3-yl)acetyl]-4-fluoropyrrolidine-2-carboxamide] are more than 100 µM, 0.02 µM and 0.78 µM.
Regarding `CC(C)c1ccc([C@@H](NC(=O)[C@@H]2C[C@@H](F)CN2S(=O)(=O)Cc2cnn[nH]2)c2ccccc2)cc1F` [Compound 772, (2S,4R)-4-fluoro-N-[(S)-[3-fluoro-4-(propan-2-yl)phenyl](phenyl)methyl]-1-[(1H-1,2,3-triazol-5-yl)methanesulfonyl] pyrrolidine-2-carboxamide], the IC50 in test [1] was more than 100 µM; in test [2] it was 0.356 µM; in test [3] it was 4.53 µM.
As to `CC(C)c1ccc([C@@H](NC(=O)[C@@H]2C[C@@H](F)CN2C(=O)CCn2nc3ccccn3c2=O)c2ccccc2)nc1F` [Compound 780, (2S,4R)-4-fluoro-N-[(S)-[6-fluoro-5-(propan-2-yl)pyridin-2-yl](phenyl)methyl]-1-{3-{3-oxo-2H,3H-[1,2,4]triazolo[4,3-a]pyridin-2-yl}propanoyl)pyrrolidine-2-carboxamide], the IC50 in test [1] is more than 100 µM; in test [2] it was 0.009 µM; in test [3] it was 0.28 µM.
On to `CC(C)c1ccc([C@@H](NC(=O)[C@@H]2C[C@@H](F)CN2C(=O)Cn2cccn2)c2ccccc2)nc1F` [Compound 781, (2S,4R)-4-fluoro-N-[(S)-[6-fluoro-5-(propan-2-yl)pyridin-2-yl](phenyl)methyl]-1-[2-(1H-pyrazol-1-yl)acetyl]pyrrolidine-2-carboxamide], for which the IC50 is more than 100 µM in test [1], 0.011 µM in test [2] and 0.27 µM in test [3].
`Cc1ccnn1CC(=O)N1C[C@H](F)C[C@H]1C(=O)N[C@@H](c1ccccc1)c1ccc(C(C)C)c(F)n1` [Compound 782, (2S,4R)-4-fluoro-N-[(S)-[6-fluoro-5-(propan-2-yl)pyridin-2-yl](phenyl)methyl]-1-[2-(5-methyl-1H-pyrazol-1-yl)acetyl] pyrrolidine-2-carboxamide]: the IC50 in test [1] was more than 100 µM; in test [2], 0.011 µM; in test [3], 0.22 µM.
On the same counts, the results for `CC(C)c1ccc([C@@H](NC(=O)[C@@H]2C[C@@H](F)CN2C(=O)Cn2nccc2C(F)F)c2ccccc2)nc1F` [Compound 783, (2S,4R)-1-{2-[5-(difluoromethyl)-1H-pyrazol-1-yl]acetyl}-4-fluoro-N-[(S)-[6-fluoro-5-(propan-2-yl)pyridin-2-yl](phenyl)methyl] pyrrolidine-2-carboxamide] are more than 100 µM, 0.005 µM and 0.08 µM.
